Values of other authors in PMC6311893, “Computational prediction of plasma protein binding of cyclic peptides from small molecule experimental data using sparse modeling techniques” (BMC Bioinformatics, 2018).
Positions of bridges follow the written chain, without caps; N, C: chain ends. Non-standard residues stand in square brackets, D forms with d. Residues, ends and D or L forms follow the SMILES beside them. *: point of attachment. dPhe(4-Cl) = N[C@H](Cc1ccc(Cl)cc1)C(=O)O; d2Nal = N[C@H](Cc1ccc2ccccc2c1)C(=O)O; Octanoyl(6-Me) = CCC(C)CCCCC(=O)*; dCit = NC(=O)NCCC[C@@H](N)C(=O)O; d3Pal = N[C@H](Cc1cccnc1)C(=O)O; Dab = NCC[CH](N)C(=O)O

tested on: plasma protein; conditions: cited from earlier work

Row | Compound | PPB (fb)
1 | COc1ccc(/C=C\c2cc(OC)c(OC)c(OC)c2)cc1OP(=O)(O)O [Combretastatin A4 phosphate] | 0.77

same assay, conditions: fraction bound to plasma protein; small molecule dataset, sheet 1-SM (Set Dte = test, Dtr = training); ref Ingle et al.; cited from earlier work

Row | Compound | PPB (fb)
2 | COCC1=C(C(=O)OC(C)OC(=O)OC(C)C)N2C(=O)[C@@H](NC(=O)/C(=N\OC)c3csc(N)n3)[C@H]2SC1 (stereo partly drawn) [cefpodoxime proxetil] | 0.29
3 | COc1ccc(CCN2CCC(Nc3nc4ccccc4n3Cc3ccc(F)cc3)CC2)cc1 [astemizole] | 0.97
4 | COc1ccc(-n2cc(C(=O)O)c(=O)c3cc(F)c(N4CCNCC4)cc32)cc1 [5c(p-OCH3)] | 0.31
5 | COc1ccc(O)cc1C(C)(C)C [2-butyl-4-hydroxyanisole] | 0.85
6 | CN(C)CCN(C)N1C=C(c2ccccc2)C2C=CC=CC21 (stereo not drawn) [Binedaline] | 0.96
7 | C#C[C@]1(O)CC[C@H]2[C@@H]3CCC4=CCCC[C@@H]4[C@H]3C(=C)C[C@@]21CC [desogestrel] | 0.98
8 | O=C(O)c1cn(-c2ccc(F)cc2)c2cc(N3CCNCC3)c(F)cc2c1=O [2c(p-F)] | 0.31
9 | COC1/C=C/OC2(C)Oc3c(C)c(O)c4c(O)c(c(/C=N/N5CCN(C6CCCC6)CC5)c(O)c4c3C2=O)NC(=O)/C(C)=C\C=C\C(C)C(O)C(C)C(O)C(C)C(O)C1C (stereo not drawn) [25-desacetylrifapentine] | 0.98
10 | N[C@@H]1CON=C1O [cycloserine] | 0.2
11 | CCOc1ccc2ccccc2c1C(=O)N[C@@H]1C(=O)N2[C@@H]1SC(C)(C)[C@@H]2C(=O)O [Nafcillin] | 0.88
12 | CNC[C@H](O)c1cccc(O)c1 [phenylephrine] | 0.51
13 | CN(C)CC/C=C1/c2ccccc2Sc2ccc(Cl)cc21 [chlorprothixene] | 0.99
14 | CC(=O)OCC1=C(C(=O)O)N2C(=O)[C@@H](NC(=O)CC#N)[C@H]2SC1 [cephacetrile] | 0.2
15 | CNC(=O)c1c(I)c(NC(C)=O)c(I)c(C(=O)O)c1I [Iothalamic acid (Iothalamate)] | 0.02
16 | CC1(C)S[C@@H]2[C@H](NC(=O)C(c3ccccc3)S(=O)(=O)O)C(=O)N2[C@H]1C(=O)O (stereo partly drawn) [Sulbenicillin] | 0.5
17 | CCN(CC)C(=O)N1CCN(C)CC1 [diethylcarbamazine] | 0
18 | O=C(O)c1cn(-c2ccc(O)cc2)c2cc(N3CCNCC3)c(F)cc2c1=O [8c(p-OH)] | 0.35
19 | CC(C)CN(C[C@@H](O)[C@H](Cc1ccccc1)NC(=O)O[C@H]1CCOC1)S(=O)(=O)c1ccc(N)cc1 [amprenavir] | 0.9
20 | CC1(C)SC2C(NC(=O)C(Cl)c3ccc(Cl)c(Cl)c3)C(=O)N2C1C(=O)O (stereo not drawn) [penicillin25] | 0.97
21 | O=C(O)c1cn(-c2ccc(C(F)(F)F)cc2)c2cc(N3CCNCC3)c(F)cc2c1=O [3c(p-CF3)] | 0.42

same assay, conditions: fraction bound to plasma protein; small molecule dataset, sheet 1-SM, Set Dtr; ref Ingle et al.; cited from earlier work

Row | Compound | PPB (fb)
22 | CC1(C)S[C@@H]2[C@H](NC(=O)[C@H](NC(=O)N3CCNC3=O)c3ccccc3)C(=O)N2[C@H]1C(=O)O [Azlocillin] | 0.32
23 | O=c1[nH]c2ccccc2n1CCCN1CCC(n2c(=O)[nH]c3cc(Cl)ccc32)CC1 [Domperidone] | 0.92
24 | CO[C@@]1(NC(=O)C(C(=O)O)c2ccc(O)cc2)C(=O)N2C(C(=O)O)=C(CSc3nnnn3C)CO[C@@H]21 (stereo partly drawn) [Moxalactam] | 0.53
25 | C[C@]12CC[C@@H]3c4ccc(O)cc4CC[C@H]3[C@@H]1CC[C@@H]2O [Estradiol] | 0.984
26 | Nc1nc(O)c2ncn(COC(CO)CO)c2n1 [Ganciclovir] | 0.01
27 | Nc1ccn(C[C@@H](CO)OCP(=O)(O)O)c(=O)n1 [Cidofovir] | 0.02
28 | CCN(CC)CCCC(C)Nc1ccnc2cc(Cl)ccc12 (stereo not drawn) [Chloroquine] | 0.58
29 | CN(C)CCCN1c2ccccc2CCc2cc(O)ccc21 [Hydroxyimipramine__ 2-] | 0.64
30 | O=C1CCc2ccc(OCCCCN3CCN(c4cccc(Cl)c4Cl)CC3)cc2N1 [Aripiprazole] | 0.99
31 | CCCCNc1cc(C(=O)O)cc(S(N)(=O)=O)c1Oc1ccccc1 [Bumetanide] | 0.96
32 | COc1ccccc1Oc1c(NS(=O)(=O)c2ccc(C(C)(C)C)cc2)nc(-c2ncccn2)nc1OCCO [Bosentan] | 0.97
33 | COc1nc(C)nc(Cl)c1N=C1NCCN1 [Moxonidine] | 0.06
34 | CCCn1c(=O)[nH]c(=O)c2[nH]cnc21 [Enprofylline] | 0.45
35 | CCc1nn(CCCN2CCN(c3cccc(Cl)c3)CC2)c(=O)n1CCOc1ccccc1 [Nefazodone] | 0.99
36 | CN1CCc2cccc3c2[C@H]1Cc1ccc(O)c(O)c1-3 [Apomorphine] | 0.94
37 | C#C[C@]1(O)CC[C@H]2[C@@H]3CCC4=CC(=O)CC[C@@H]4[C@H]3CC[C@@]21CC [Levonorgestrel] | 0.975
38 | CC(C)NCC(O)COc1cccc2[nH]ccc12 (stereo not drawn) [Pindolol] | 0.48
39 | C[C@]12C=CC(=O)C=C1CC[C@@H]1[C@@H]2[C@@H](O)C[C@@]2(C)[C@H]1CC[C@]2(O)C(=O)CO [Prednisolone] | 0.81
40 | CNCC[C@@H](Oc1ccccc1C)c1ccccc1 [Atomoxetine] | 0.97
41 | Cc1[nH]c(=O)c(C#N)cc1-c1ccncc1 [Milrinone] | 0.85
42 | CN1CCN(CCCCN2C(=O)CN(/N=C/c3ccc(-c4ccc(Cl)cc4)o3)C2=O)CC1 [Azimilide] | 0.94

same assay, conditions: fraction bound to plasma protein; small molecule dataset, sheet 1-SM; ref Ingle et al.; cited from earlier work

Row | Compound | PPB (fb)
43 | CC(C(=O)O)c1ccc(N2Cc3ccccc3C2=O)cc1 (stereo not drawn) [indoprofen] | 0.99
44 | OC[C@H]1O[C@@H](n2cnc3c2NC=NC[C@H]3O)C[C@@H]1O [pentostatin] | 0.03
45 | CC(Oc1ccc(F)cc1)C(=O)NC1C(=O)N2C1SC(C)(C)C2C(=O)O (stereo not drawn) [penicillin62] | 0.8
46 | C[C@@H](O)[C@H]1C(=O)N2C(C(=O)O)=C(SCCOC(N)=O)S[C@H]12 [Sch34343] | 0.65
47 | COc1ccc(CCN(C)CCCC(C#N)(c2cc(OC)c(OC)c(OC)c2)C(C)C)cc1OC (stereo not drawn) [gallopamil] | 0.9
48 | CC(C)NC[C@H](O)COc1ccc(O)cc1 [prenalterol] | 0.04
49 | Cc1cc(C(=O)NCCc2ccc(S(=O)(=O)NC(=O)NN3CCCCCC3)cc2)no1 [glisoxepide] | 0.93
50 | O=C1NC(=O)C(c2ccccc2)(c2ccccc2)N1 [phenytoin] | 0.91
51 | NC(=O)OCC(COC(N)=O)c1ccccc1 [felbamate] | 0.23
52 | C[C@@H](c1ncncc1F)[C@](O)(Cn1cncn1)c1ccc(F)cc1F [Voriconazole] | 0.58
53 | COc1ccc2c(c1)C(=O)N(CCc1ccc(S(=O)(=O)NC(=O)NC3CCCCC3)cc1)C(=O)C2(C)C [gliquidone] | 0.99
54 | CCC1(C)CC(=O)NC1=O (stereo not drawn) [ethosuximide] | 0
55 | COc1c(C)nc2ccccc2c1C(=O)NC1C(=O)N2C1SC(C)(C)C2C(=O)O (stereo not drawn) [penicillin77] | 0.62
56 | CCOC(=O)Nc1ccc2c(c1)N(C(=O)CCN1CCOCC1)c1ccccc1S2 [moracizine] | 0.88
57 | CC1(C)SC2C(NC(=O)C(N)c3cccc(N)c3)C(=O)N2C1C(=O)O (stereo not drawn) [penicillin31] | 0.12
58 | N=C(N)c1ccc(OCCCCCOc2ccc(C(=N)N)cc2)cc1 [pentamidine] | 0.7
59 | COc1cc(NCc2ccc3nc(N)nc(N)c3c2C)cc(OC)c1OC [Trimetrexate] | 0.96
60 | CC(C)=CCC1C(=O)N(c2ccccc2)N(c2ccccc2)C1=O [feprazone] | 0.95
61 | CC(Cc1ccccc1)NCCC(c1ccccc1)c1ccccc1 (stereo not drawn) [prenylamine] | 0.97
62 | Cc1ccc(O)c([C@H](CCN(C(C)C)C(C)C)c2ccccc2)c1 [Tolterodine] | 0.96

same assay, conditions: human, plasma; cited from earlier work

Row | Compound | PPB (fb)
63 | CC(=O)N[C@H](Cc1ccc2ccccc2c1)C(=O)N[C@H](Cc1ccc(Cl)cc1)C(=O)N[C@H](Cc1cccnc1)C(=O)N[C@@H](CO)C(=O)N[C@@H](Cc1ccc(O)cc1)C(=O)N[C@H](CCCNC(N)=O)C(=O)N[C@@H](CC(C)C)C(=O)N[C@@H](CCCNC(=N)N)C(=O)N1CCC[C@H]1C(=O)N[C@H](C)C(N)=O [Cetrorelix] (Ac-[d2Nal][dPhe(4-Cl)][d3Pal]SY[dCit]LRP[dA]-NH2) | 0.86
64 | CCC(C)CCCCC(=O)NC(CCN)C(=O)NC(C(=O)NC(CCN)C(=O)NC1CCNC(=O)C(C(C)O)NC(=O)C(CCN)NC(=O)C(CCN)NC(=O)C(CC(C)C)NC(=O)C(Cc2ccccc2)NC(=O)C(CCN)NC1=O)C(C)O (stereo not drawn) [polymyxin-B] ({Octanoyl(6-Me)}-[Dab]T[Dab][Dab][Dab]FL[Dab][Dab]T; lactam 4-C; configuration not given here) | 0.1

same assay, conditions: plasma; cited from earlier work

Row | Compound | PPB (fb)
65 | O=C1OC(c2ccc(O)c(S(=O)(=O)O)c2)(c2ccc(O)c(S(=O)(=O)O)c2)c2c(Br)c(Br)c(Br)c(Br)c21 [sulfobromophthalein] | 0.99
66 | COc1ccc2cc1Oc1cc3c(cc1OC)CC[N+](C)(C)[C@H]3Cc1ccc(cc1)Oc1c(OC)c(OC)cc3c1[C@@H](C2)[N+](C)(C)CC3 [Metocurine] | 0.35
67 | CCCC(C)(COC(N)=O)COC(=O)NC(C)C (stereo not drawn) [carisoprodol] | 0.58
68 | NC(=O)C[S+]([O-])C(c1ccccc1)c1ccccc1 (stereo not drawn) [modafinil] | 0.6
69 | Tigecycline | 0.8
70 | O=P1(NCCCl)OCCCN1CCCl (stereo not drawn) [Ifosfamide] | 0
71 | Cefmetazole | 0.77
72 | CN1CC[C@]23CCCC[C@H]2[C@H]1Cc1ccc(O)cc13 [levorphanol] | 0.4
73 | Iloprost | 0.6
74 | CCCCCc1cc(O)c2c(c1)OC(C)(C)C1CCC(C)=CC21 (stereo not drawn) [Tetrahydrocannabinol__ D9-] | 0.96
75 | COC(=O)Nc1nc2ccccc2[nH]1 [carbendazim] | 0.67
76 | Nisoldipine | 1
77 | CCN(CC)C(=O)N[C@H]1C=C2c3cccc4[nH]cc(c34)C[C@H]2N(C)C1 [lisuride] | 0.7
78 | COC1C(C)OC(OC2C=C3CCC4C(CCC5(C)C(c6ccc(=O)oc6)CCC45O)C3(C)CC2)C(O)C1O (stereo not drawn) [meproscillarin] | 0.96
